Publication PMC6749521, “The Effect of Flavonoid Aglycones on the CYP1A2, CYP2A6, CYP2C8 and CYP2D6 Enzymes Activity” (Molecules, 2019)

Columns and labels:
CYP1A2 [1] = biological target: T1, CYP1A2 (Homo sapiens, UniProt P05177); assay: CYP1A2 enzyme activity, phenacetin O-deethylation (MDI, TDI, DI assays), recombinant baculosomes; conditions: for Type of CYP1A2 inhibition: concluded from MDI, TDI, DI assays at 1 µM; for activity at 15 min, 1 µM: human
T1 sequence (P05177 1-516): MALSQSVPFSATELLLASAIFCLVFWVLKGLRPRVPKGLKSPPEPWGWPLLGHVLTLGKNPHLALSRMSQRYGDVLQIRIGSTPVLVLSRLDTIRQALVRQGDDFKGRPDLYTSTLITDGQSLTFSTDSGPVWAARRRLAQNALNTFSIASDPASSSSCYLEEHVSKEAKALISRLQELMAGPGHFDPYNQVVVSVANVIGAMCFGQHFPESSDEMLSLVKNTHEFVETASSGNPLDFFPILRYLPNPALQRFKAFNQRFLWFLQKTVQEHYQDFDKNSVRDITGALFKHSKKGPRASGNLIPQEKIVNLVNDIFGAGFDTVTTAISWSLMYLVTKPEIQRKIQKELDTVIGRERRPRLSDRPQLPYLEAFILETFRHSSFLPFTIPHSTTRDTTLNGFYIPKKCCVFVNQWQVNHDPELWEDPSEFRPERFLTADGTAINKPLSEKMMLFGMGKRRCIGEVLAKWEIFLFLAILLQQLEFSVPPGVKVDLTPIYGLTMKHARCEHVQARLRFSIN
Description: (§1) The recombinant baculosomes with hyperexpressed cytochromes P450 (1A2, 2A6, 2C8, and 2D6) and coexpressed NADPH cytochrome P450 reductase and cytochrome b5 were used as a source of enzyme. Baculosomes were commercially obtained from Thermo Fisher Scientific (Waltham, MA, USA), and all other chemicals from Sigma-Aldrich if not otherwise indicated. A 1.0 M solution phosphate buffer of pH 7.4 was prepared in house. NADPH generating system was prepared of 0.1 M glucose-6-phosphate, 10 mg mL^−1 NADP^+, and 1000 IU mL^−1 glucose-6-phosphate dehydrogenase in ratio 100:50:2 (v/v/v).
Phenacetine O-deethylation was used as a marker reaction for monitoring CYP1A2 enzyme activity (Figure 2). Incubations of 100 µL were conducted at the temperature of 37 °C. The pH of the incubation mixture was set at 7.4 using a potassium phosphate buffer (final concentration 50 mM). The total amount of CYP1A2 enzyme was 5 pmol, and the final concentration of substrate was 150 µM. Residual activity was determined by incubating the flavonoid (1 µM) with phenacetine as a substrate for 15 min, with or without preincubation, depending of the type of inhibition assay. Reactions were started by the addition of 15 µL of NADPH generating system, while the reactions were stopped by the addition of 1 mL 1% formic acid in acetonitrile. After centrifugation (10 min, 1900× g), the clear solution was transferred to a vial for HPLC analysis.
HPLC analysis was performed on Agilent 1100 instrument (Santa Clara, CA, USA) coupled with a diode array detector (DAD) on Luna C18 column (4.6 × 150 mm, 3 μm). The gradient method was used for separation. Mobile phase A consisted of water, acetonitrile, and glacial acetic acid in the volume ratio of 90:10:0.1, while mobile phase B contained the same solvents in the ratio 10:90:0.1. The following gradient timetable was used (t/min, %B): (0, 0), (2, 0), (13, 55), (14, 0), (20, 0). The flow rate was 1 mL/min, and chromatograms were recorded at 254 nm. Volume of incubation injected to the column was 15 µL. […] The amount of generated product (acetaminophen) was determined as the area under the curve based on the calibration curve of the standard.
(§2) Three types of experiments were conducted to determine metabolism dependent inhibition, time dependent inhibition, and direct inhibition of CYP1A2, CYP2A6, CYP2C8, and CYP2D6 enzymes.
(§3) To determine metabolism dependent inhibition (MDI assay), the flavonoid was first preincubated with the enzyme with the addition of the generating system for 30 min, after which the marker substrate was added to determine residual enzyme activity (as described above for each enzyme).
(§4) If metabolism dependent inhibition was determined, time dependent inhibition and direct inhibition were tested. Time dependent inhibition (TDI assay) was assessed by preincubating the flavonoid and enzyme, without the generating system, after which residual activity was determined by adding the NADPH generating system along with the substrate (as described above for each enzyme).
(§5) The direct inhibition assay (DI assay) was conducted without preincubation, i.e., the NADPH generating system was added to the incubation mixture containing flavonoid and substrate following the experimental set-up described above for each individual cytochrome P450 enzyme.
(§6) Pure time dependent inhibitors require time to interact with the enzyme. Thus, TDI inhibitors will show a reduction of enzyme activity in assays with preincubations, i.e., the MDI and TDI assays, but not in the DI assay (no preincubation). […] DI inhibitors will reduce enzyme activity in all three assays (MDI, TDI, and DI).
All incubations were conducted in triplicate. The results are expressed as the residual activity of the enzyme, i.e., the percentage of product generated in incubation with the addition of flavonoid in ratio to the control without flavonoid.

CYP2C8 = biological target: T2, CYP2C8 (Homo sapiens, UniProt P10632); assay: CYP2C8 enzyme activity, paclitaxel 6α-hydroxylation (MDI, TDI, DI assays), recombinant baculosomes; assay type: biochemical
T2 construct: purchased Thermo Fisher Scientific; host or cells: baculosomes
T2 sequence (P10632 1-490): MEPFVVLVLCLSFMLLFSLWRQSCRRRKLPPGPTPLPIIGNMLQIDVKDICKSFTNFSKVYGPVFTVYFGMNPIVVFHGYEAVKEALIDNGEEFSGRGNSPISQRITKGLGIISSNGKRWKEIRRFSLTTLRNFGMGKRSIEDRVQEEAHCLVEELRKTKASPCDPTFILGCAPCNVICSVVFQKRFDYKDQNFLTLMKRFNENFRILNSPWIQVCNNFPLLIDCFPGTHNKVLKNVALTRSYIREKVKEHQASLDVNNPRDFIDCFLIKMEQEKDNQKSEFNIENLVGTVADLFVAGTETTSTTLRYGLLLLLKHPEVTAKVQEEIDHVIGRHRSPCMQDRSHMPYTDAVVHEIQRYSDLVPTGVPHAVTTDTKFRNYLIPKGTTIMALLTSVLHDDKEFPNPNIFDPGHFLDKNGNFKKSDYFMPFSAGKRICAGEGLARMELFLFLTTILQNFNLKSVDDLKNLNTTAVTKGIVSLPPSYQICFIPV
Description: as §1
Paclitaxel 6α-hydroxylation was used as a marker reaction for monitoring CYP2C8 enzyme activity (Figure 2). The incubation conditions were the same as for CYP1A2 enzyme (vide supra) unless otherwose stated. The final concentration of paclitaxel was 20 µM, while the incubation time was set to 30 min.
HPLC-DAD analysis was conducted on the same system as the CYP1A2 enzyme with the following modifications: The gradient timetable (t/min, %B) was (0, 50), (2, 50), (10, 90), (11, 50), (17, 50), and the detection wavelength was 227 nm. […] The amount of generated product was determined as the area under the curve based on the calibration curve of the standard.
as §2, §3, §4, §5, §6
(§7) All incubations were conducted in triplicate. The results are expressed as the residual activity of the enzyme, i.e., the percentage of product generated in incubation with the addition of flavonoid in ratio to the control without flavonoid. The statistical significance was tested with Student’s t-test in the program R (The R Project for Statistical Computing, Vienna, Austria).

rat liver microsomes = tested on: rat liver microsomes; design: method as in ref 24 (Siess et al.); conditions: ref 24 (Siess et al.); cited from earlier work
CYP1A2 [2] = tested on: CYP1A2; design: method as in ref 23 (Lee et al.); conditions: ref 23 (Lee et al.); cited from earlier work
CYP1A2 [3] = tested on: CYP1A2; design: method as in ref 25 (Kim et al.); conditions: recombinant cytochrome P450 system; ref 25 (Kim et al.); cited from earlier work
CYP3A4 = tested on: CYP3A4; design: method as in PMID 30301254; conditions: statistical significance p < 0.1; cited from earlier work
CYP2A6 = biological target: T3, CYP2A6 (Homo sapiens, UniProt P11509); assay: CYP2A6 enzyme activity, coumarin 7-hydroxylation (MDI, TDI, DI assays), recombinant baculosomes
T3 sequence (P11509 1-494): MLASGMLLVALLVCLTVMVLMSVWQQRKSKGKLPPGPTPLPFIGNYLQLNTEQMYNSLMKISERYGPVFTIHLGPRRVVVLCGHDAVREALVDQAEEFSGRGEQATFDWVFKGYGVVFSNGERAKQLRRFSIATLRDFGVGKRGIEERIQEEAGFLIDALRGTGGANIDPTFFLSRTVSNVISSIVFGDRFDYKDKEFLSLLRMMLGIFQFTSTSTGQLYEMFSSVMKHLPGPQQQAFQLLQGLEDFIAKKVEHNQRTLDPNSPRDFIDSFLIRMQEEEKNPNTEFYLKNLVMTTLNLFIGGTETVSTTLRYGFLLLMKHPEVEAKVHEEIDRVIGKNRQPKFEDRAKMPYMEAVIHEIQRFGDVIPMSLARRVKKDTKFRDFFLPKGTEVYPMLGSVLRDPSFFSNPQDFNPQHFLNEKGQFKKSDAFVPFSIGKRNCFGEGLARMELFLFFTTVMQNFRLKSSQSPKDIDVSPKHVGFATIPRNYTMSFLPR
Description: as §1
The aromatic hydroxylation of coumarin at the position 7 was used as a marker reaction for CYP2A6. The incubation conditions were the same as for CYP1A2 enzyme (vide supra) unless otherwise stated. The final concentration of coumarin was 10 µM, while the incubation time was extended to 30 min.
HPLC-DAD analysis was conducted on the same system as the CYP1A2 enzyme with the following modifications: The gradient timetable (t/min, %B) was (0, 20), (1.5, 20), (10, 70), (11, 20), (17, 20), and the detection wavelength was 330 nm. The retention time of the substrate (coumarin) was 7.5 min, while the product (7-hydroxycoumarin) was detected at 4.8 min. The amount of generated product was determined as the area under the curve based on the calibration curve of the standard.
as §2, §3, §4, §5, §6, §7

CYP1A2 [4] = tested on: CYP1A2; design: method as in ref 28 (Chang et al.); conditions: ref 28 (Chang et al.); read-out: Inhibition constant, competitive inhibition of CYP1A2-mediated 7-ethoxyresorufin O-dealkylation; cited from earlier work

Structure (SMILES): O=c1cc(-c2ccccc2)oc2cc(O)cc(O)c12 [chrysin]
- Inhibition of CYP1A2 activity (CYP1A2 [1]; 1 µM flavonoid): inhibited
- Residual CYP1A2 enzyme activity, time dependent inhibition (TDI) assay (CYP1A2 [1]; 1 µM flavonoid, preincubation without generating system): complete inhibition
- Type of CYP1A2 inhibition (CYP1A2 [1]): reversible
- activity at 15 min, 1 µM (CYP1A2 [1]; pH 7.4, probe phenacetin (O-deethylation), 150 µM): 18 ± 4%
- activity at 15 min, 1 µM (CYP1A2 [1]; pH 7.4, probe phenacetin (O-deethylation), 150 µM, Residual CYP1A2 enzyme activity, direct inhibition (DI) assay, 1 µM flavonoid, no preincubation): 23 ± 6%
- Inhibition of CYP2C8 paclitaxel 6-α-hydroxylation (CYP2C8; 1 µM flavonoid): inhibition
- CYP2C8 enzyme activity in the TDI assay (CYP2C8; 1 µM flavonoid, TDI assay): reduction of enzyme activity was not observed
- Type of CYP2C8 inhibition (CYP2C8; concluded from MDI, TDI, DI assays at 1 µM): mixed reversible and irreversible inhibitors
- Type of inhibition of ethoxy- and pentoxy-resorufin dealkylation (rat liver microsomes): mix type reversible
- Type of CYP1A2 inhibition, N3-demethylation of caffeine (CYP1A2 [2]): reversible, competitive inhibition
- Type of CYP1A2 inhibition, ethoxyresorufin O-deethylation (CYP1A2 [3]): reversible mix inhibition
- Inhibition of CYP3A4 metabolic activity (CYP3A4): inhibition

Structure (SMILES): COc1cc(-c2oc3cc(O)cc(O)c3c(=O)c2O)ccc1O [isorhamnetin]
- Inhibition of CYP1A2 activity (CYP1A2 [1]; 1 µM flavonoid): inhibited
- Type of CYP1A2 inhibition (CYP1A2 [1]): reversible inhibitor
- activity at 15 min, 1 µM (CYP1A2 [1]; pH 7.4): 8 ± 2%
- Inhibition of CYP2A6 enzyme activity (CYP2A6; 1 µM flavonoid): inhibited
- inhibition at 30 min, 1 µM (CYP2A6; human, pH 7.4): 16 ± 5%
- Ki (CYP1A2 [4]): 140 nM
- Inhibition of CYP3A4 metabolic activity (CYP3A4): inhibition
